In general, viability refers to a read-out of living cells in per cent, often relative to untreated cells.

80 compounds from PMC12040169 (PLOS Biology, 2025) can be followed below.

The nature of the data set: in vitro. Conditions: human, hela cells, % viability.

Regarding `CC(C)N1CCC(=NNC(=O)c2cc(O)c(O)c(O)c2)CC1` [CBK262626], the viability at 28.5 h, 10 µM is 117%.

For `O=C(NCc1ccc(-c2csnn2)cc1)c1ccc(Oc2ccccc2)cc1` [CBK149300], the viability at 28.5 h, 10 µM came out at 108%.

In the case of `Cc1cc2c3c(c1)c1c(n3CCC2)CCNCC1` [CBK018380C], the viability at 28.5 h, 10 µM was found to be 96.9%.

`c1ccc2c(c1)nc(-c1cscn1)n2CCCCc1nnn[nH]1` [CBK267110]: the viability at 28.5 h, 10 µM amounted to 93.7%.

For `OCCN1CC2(CCN(CC3CCCO3)CC2)c2ccccc21` (centres unmarked) [CBK143959], the viability at 28.5 h, 10 µM is 90.8%.

For the compound `CCOc1cc(C)c(C(C)C)cc1S(=O)(=O)NCc1ccccn1` [CBK268080], the viability at 28.5 h, 10 µM is 104%.

Consider `O=C(NCCCn1ccnc1)c1cccs1` [CBK261740], for which the viability at 28.5 h, 10 µM was found to be 90.2%.

`OC1(c2cccnc2)CCCC2CN(Cc3cc(F)ccc3F)CC21` (centres unmarked) [CBK284513]: the viability at 28.5 h, 10 µM came out at 103%.

Regarding `O=C(Cc1ncc(C(F)(F)F)cc1Cl)NO` [CBK007437], the viability at 28.5 h, 10 µM was 85%.

In the case of `Cc1cc(Cl)cc(C)c1OCCN1CCNCC1` [CBK266057G], the viability at 28.5 h, 10 µM worked out at 84.4%.

In the case of `CCNC(=S)N1CCN(CCNC=C2C(=O)NC(=O)NC2=O)CC1` [CBK265228], under “bulk resorufin, single well”, the viability at 28.5 h, 10 µM is 111%.

`CN(C)C(CC(=O)Nc1cccc(Cl)c1Cl)C(=O)O` (centres unmarked) [CBK266952]: the viability at 28.5 h, 10 µM is 107%.

For the compound `CC(=O)c1ccc(C)cc1OC(=O)C1CCCN(S(C)(=O)=O)C1` (centres unmarked) [CBK306140], the viability at 28.5 h, 10 µM amounted to 115%.

Regarding `O=C(O)CCCC(=O)N1N=C(c2ccccc2)CC1c1ccc2nccnc2c1` (centres unmarked) [CBK286752], the viability at 28.5 h, 10 µM is 89.4%.

Consider `COc1ccc(C)cc1C1(CNC(=O)C2CCCC2N)CCOCC1` (centres unmarked) [CBK304308C], for which the viability at 28.5 h, 10 µM was 108%.

As for `Nc1nc(CN2CCN(c3ccccc3F)CC2)nc(N2CCCc3ccccc32)n1` [CBK270234], the viability at 28.5 h, 10 µM came to 87.4%.

As for `O=C(NC1CCCC1)c1ccnc2ccccc12` [CBK200237], the viability at 28.5 h, 10 µM was 92.6%.

Turning to `CSc1nc2ccc(S(=O)(=O)N3CCCC3)cc2s1` [CBK268400], the viability at 28.5 h, 10 µM stood at 104%.

Regarding `Nc1ncnc2c1nc(Br)n2[C@H]1C[C@@H](O)[C@@H](CO)O1` [CBK201240], the viability at 28.5 h, 10 µM was determined as 103%.

`COc1cc(S(=O)(=O)N2CCCN(S(=O)(=O)c3cc(OC)c(Cl)cc3OC)CC2)c(OC)cc1Cl` [CBK266489]: the viability at 28.5 h, 10 µM came to 99.4%.

For `O=C(Nc1ccc(N2CCN(C(=O)c3cccs3)CC2)cc1)c1ccc(-c2cc3ccccc3oc2=O)cc1` [CBK267340], the viability at 28.5 h, 10 µM was 96.2%.

`Cc1ccccc1OC(C)C(=O)NCCCN1CCOCC1` (centres unmarked) [CBK268628]: the viability at 28.5 h, 10 µM was 112%.

For the compound `CN(C)CCO/N=C(\c1ccccc1)c1ccncc1` [CBK261095G], the viability at 28.5 h, 10 µM is 94.2%.

Regarding `CCC(C(=O)Nc1cc(OC)c(OC)cc1C(=O)O)c1ccccc1` (centres unmarked) [CBK266794], the viability at 28.5 h, 10 µM is 106%.

`O=C(O)CSc1nc2ccccc2n1Cc1ccccc1` [CBK262411]: the viability at 28.5 h, 10 µM was found to be 94.2%.

Regarding `CCOC(=O)C1CCN(/C=C2/C(=O)NC(=S)N(c3ccccc3F)C2=O)CC1` [CBK265142], the viability at 28.5 h, 10 µM (bulk resorufin, single well) was determined as 102%.

Consider `CCC1CCCCN1Cc1nc2c(c(=O)n(C)c(=O)n2C)n1CCCO` (centres unmarked) [CBK269365], for which the viability at 28.5 h, 10 µM was 91.8%.

Regarding `O=C1C=C(O)CC(CCc2ccc(F)cc2)(CCc2ccc(F)cc2)O1` [CBK008148], the viability at 28.5 h, 10 µM is 92.7%.

As to `O=C(O)c1ccc(-c2ccc(/C=C/c3nc(O)c([N+](=O)[O-])c(=O)[nH]3)o2)cc1Cl` [CBK267354], the viability at 28.5 h, 10 µM was 88.1%.

As for `Cc1noc2nc(C3CCN(C(=O)C(C)C)CC3)cc(C(F)F)c12` [CBK285305], the viability at 28.5 h, 10 µM was 79.9%.

As for `Cn1ccnc1CN1C(=O)CO[C@H]2CN(Cc3ccc4c(c3)OCO4)C[C@H]21` [CBK289665], the viability at 28.5 h, 10 µM came to 90%.

Turning to `COc1ccc(CC(=O)N2CC=C(c3ccc(C)o3)CC2)cc1` [CBK283572], the viability at 28.5 h, 10 µM stood at 92.4%.

For `O=C(/C=C/c1ccc(Cl)cc1)Nc1nnn[nH]1` [CBK265468], the viability at 28.5 h, 10 µM is 81.8%.

Regarding `CCCN(CC1CC1)C(=O)Cn1c([C@@H]2CCCO2)cc2cccnc21` [CBK282871], the viability at 28.5 h, 10 µM stood at 94.4%.

Consider `O=C(OCc1ccc(Cl)cc1)c1ccc2c(c1)C(=O)N(c1cccc([N+](=O)[O-])c1)C2=O` [CBK265188], for which the viability at 28.5 h, 10 µM came to 109%.

As for `Cn1nnc2cc(NCC34CC3CN(C(=O)OC(C)(C)C)C4)ccc21` (centres unmarked) [CBK304758], the viability at 28.5 h, 10 µM is 92.7%.

For the compound `Nc1ncn([C@H]2C[C@@H](O)[C@@H](CO)O2)c(=O)n1` [CBK201329], the viability at 28.5 h, 10 µM was 92.8%.

Consider `NC(=O)c1c(NC(=O)Cn2cnc([N+](=O)[O-])n2)sc2c1CCCC2` [CBK027935], for which the viability at 28.5 h, 10 µM came out at 98.6%.

Turning to `NC(=O)CS(=O)(=O)c1ccc(Cl)cc1` [CBK026373], the viability at 28.5 h, 10 µM worked out at 95.7%.

As to `Cc1cc(C2CCCCCN2Cc2c(C)nn(C)c2C)no1` (centres unmarked) [CBK284846], the viability at 28.5 h, 10 µM was 87.6%.

Regarding `COC(=O)c1oc(-c2ccc(OC)cc2)c(-c2ccc(OC)cc2)c1C(N)=O` [CBK001957], the viability at 28.5 h, 10 µM is 98.7%.

As to `CC(C)Cn1c(SCC(=O)Nc2ccc(OC(F)F)cc2)nc(O)cc1=O` [CBK296679], the viability at 28.5 h, 10 µM came to 91.2%.

`CCCCN(C)c1c(C)nc2c(Oc3nc4ccccc4s3)cccn12` [CBK147192]: the viability at 28.5 h, 10 µM is 93.4%.

As to `O=C(Nc1ccc(F)cc1)c1ccc(NS(=O)(=O)c2ccc(Br)cc2)cc1` [CBK050400], the viability at 28.5 h, 10 µM came to 103%.

Turning to `O=C(CNS(=O)(=O)c1ccc(Oc2ccccc2)cc1)Nc1ccc(F)cc1` [CBK042229], the viability at 28.5 h, 10 µM is 104%.

Regarding `COc1cc(C)c(CN2CCN(C(=O)COc3cc4ccccc4cc3C(=O)O)CC2)cc1OC` [CBK296968], the viability at 28.5 h, 10 µM is 99.6%.

For `COc1cc(CNc2nc(Br)cn3ccnc23)cc(OC)c1OC` [CBK038060], the viability at 28.5 h, 10 µM was determined as 110%.

For `O=c1[nH]nc(SCc2csc(COc3ccc(Cl)cc3)n2)n1C1CC1` [CBK295146], the viability at 28.5 h, 10 µM came to 87.9%.

As to `CC(=O)NCCSc1cc(C(F)(F)F)ccn1` [CBK105297], the viability at 28.5 h, 10 µM stood at 107%.

With `O=[N+]([O-])c1ccc(CSc2nnc(-c3cccs3)n2Cc2ccco2)cc1` [CBK267588], the viability at 28.5 h, 10 µM was 86.6%.

Turning to `CCn1cc(C2CN(S(=O)(=O)c3cc(C)c(OC)c(C)c3)CCO2)cn1` (centres unmarked) [CBK304224], the viability at 28.5 h, 10 µM came out at 85.8%.

Take `CC(=O)Nc1ccc(-c2ccc(C(=O)NC3CC3)cn2)cc1` [CBK158854]: the viability at 28.5 h, 10 µM amounted to 84.9%.

As for `O=C(Nc1ccc2n(c1=O)C[C@@H]1CNC[C@H]2C1)c1ccncc1` [CBK289177], the viability at 28.5 h, 10 µM turned out to be 107%.

With `CS(=O)(=O)N1CCCc2cc(C(=O)O)ccc21` [CBK287072], the viability at 28.5 h, 10 µM worked out at 93%.

For the compound `COc1ccc(Cn2cnc3[nH]ncc3c2=O)cc1` [CBK288049], the viability at 28.5 h, 10 µM worked out at 91.7%.

With `COc1ccccc1CNc1nccc(-n2ccc(C)n2)n1` [CBK288611], the viability at 28.5 h, 10 µM was 111%.

As to `COc1ccc(CNc2ccc(N3CCOCC3)c(C(=O)O)c2)c(OC)c1` [CBK269860], the viability at 28.5 h, 10 µM turned out to be 91.3%.

For `CC(C)n1c(CN2CCOCC2)nc2c1c(=O)n(C)c(=O)n2C` [CBK306201], the viability at 28.5 h, 10 µM was 83.7%.

In the case of `CC(NCc1nc(=O)c2sccc2[nH]1)c1ccc2c(c1)OCCO2` (centres unmarked) [CBK295157], the viability at 28.5 h, 10 µM was 88.4%.

For `N=C(Nc1nc(CSc2nnc(N)s2)cc(=O)[nH]1)Nc1ccc(Cl)cc1Cl` [CBK268890], the viability at 28.5 h, 10 µM was 85.5%.

As to `N=C(Nc1nc(=O)cc(CSc2ccc(Cl)cc2)[nH]1)Nc1cccc2ccccc12` [CBK266504], the viability at 28.5 h, 10 µM came to 98.9%.

On to `Cc1csc2ncc(C(=O)NCc3ccc4c(c3)OCO4)c(=O)n12` [CBK287292], for which the viability at 28.5 h, 10 µM amounted to 109%.

In the case of `C=Cn1ncc(CN2CCC(O)(c3ccccc3C)CC2)c1C` [CBK282582], the viability at 28.5 h, 10 µM was 88.6%.

Regarding `CCOC(=O)c1cnc2ccc(Cl)cc2c1NC` [CBK307605], the viability at 28.5 h, 10 µM was determined as 71.1%.

`O=C(O)Cc1cnnn1-c1ccc(Cl)cc1Cl` [CBK288035]: the viability at 28.5 h, 10 µM is 86%.

For `S=C1NCN(Cc2ccccc2)CN1c1ccccc1` [CBK263536], the viability at 28.5 h, 10 µM worked out at 91.3%.

For the compound `CC1CCCC(C)N1c1nn(C)c(=O)[nH]1` (centres unmarked) [CBK019114], the viability at 28.5 h, 10 µM worked out at 100%.

Consider `Cc1cc(C)n(CC(=O)NCC(c2cccs2)N2CCOCC2)n1` (centres unmarked) [CBK305620], for which the viability at 28.5 h, 10 µM came out at 102%.

For `O=C(C1CC1)N1C2CCC1Cn1c(nc3ccccc3c1=O)C2` (centres unmarked) [CBK284451], the viability at 28.5 h, 10 µM came to 92.2%.

In the case of `COc1cc2c(cc1NC(=O)c1cc(-c3cccnc3)nc3ccc(C)cc13)oc1ccccc12` [CBK267722], the viability at 28.5 h, 10 µM stood at 92.1%.

Take `CCC1(CC)CCN(C(=O)CCn2ccc3ccncc32)C1` [CBK285176]: the viability at 28.5 h, 10 µM worked out at 84.9%.

In the case of `COc1cccc2cc([C@H]3CN(C(=O)C(C)(C)N)C[C@@H]3C(=O)N3CCC4(CC3)CN(S(C)(=O)=O)c3ccccc34)oc12` [CBK001347C], the viability at 28.5 h, 10 µM is 117%.

Regarding `O=[N+]([O-])c1cc(Br)cc(/C=N/Nc2nc3ccccc3[nH]2)c1O` [CBK263486], the viability at 28.5 h, 10 µM was found to be 89.1%.

On to `CC1CC(C)CN(C(=O)NCCCCCC(=O)O)C1` (centres unmarked) [CBK286793], for which the viability at 28.5 h, 10 µM amounted to 89%.

With `Cn1nc(C2CC2)cc1C(=O)NCCN1CCc2ccccc21` [CBK282138], the viability at 28.5 h, 10 µM turned out to be 91.5%.

Take `COC1C(O)C(CO)OC1n1ccc(=O)[nH]c1=O` (centres unmarked) [CBK201166]: the viability at 28.5 h, 10 µM worked out at 93.6%.

Regarding `O=C(c1cccnc1)N1CCN(CCN2C(=O)C3C4C=CC(C4)C3C2=O)CC1` (centres unmarked) [CBK263639], the viability at 28.5 h, 10 µM stood at 98.2%.

Regarding `Cc1ccc(N(CC(O)CN2C(=O)NC(C)(C)C2=O)S(=O)(=O)c2ccccc2)cc1` (centres unmarked) [CBK263580], the viability at 28.5 h, 10 µM stood at 99.2%.

On to `O=C(CC1CCCO1)N1CCn2c(nnc2-c2cncc(Br)c2)C1` (centres unmarked) [CBK304762], for which the viability at 28.5 h, 10 µM was determined as 91.4%.

Take `CCCn1nc(C)c(-c2cncn2CCn2nc(C)c(C)c2C)c1C` [CBK281444]: the viability at 28.5 h, 10 µM stood at 83.5%.
